According to PMC3543423, “Structure Prediction and Validation of the ERK8 Kinase Domain” (PLoS ONE, 2013):

Target: T1, ERK8 (Homo sapiens, UniProt Q8TD08)
T1 construct: gene MAPK15; full-length GST-ERK8 (baculovirus-expressed, GST-ERK8Bac)
T1 sequence (Q8TD08 1-544): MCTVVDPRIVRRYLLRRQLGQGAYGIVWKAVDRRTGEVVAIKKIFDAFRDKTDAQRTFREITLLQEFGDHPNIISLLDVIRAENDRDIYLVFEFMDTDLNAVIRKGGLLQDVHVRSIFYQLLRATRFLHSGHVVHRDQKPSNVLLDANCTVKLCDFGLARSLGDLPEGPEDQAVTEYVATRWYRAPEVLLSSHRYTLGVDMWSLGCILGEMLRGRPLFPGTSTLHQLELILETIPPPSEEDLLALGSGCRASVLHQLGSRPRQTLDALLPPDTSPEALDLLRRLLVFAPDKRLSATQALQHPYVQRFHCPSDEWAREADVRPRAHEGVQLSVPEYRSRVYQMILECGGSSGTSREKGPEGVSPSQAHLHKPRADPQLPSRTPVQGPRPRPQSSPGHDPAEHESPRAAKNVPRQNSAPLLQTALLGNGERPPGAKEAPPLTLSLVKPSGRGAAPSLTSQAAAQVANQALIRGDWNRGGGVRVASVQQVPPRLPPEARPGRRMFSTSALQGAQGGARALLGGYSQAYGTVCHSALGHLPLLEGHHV
Assay: radiometric [γ-32P]ATP kinase assay with MBP substrate, dose/response; ATP competition; reduced inhibition of F92I mutant
Format: biochemical

SMILES	IC50 [µM]
CCOC(=O)c1c(C(=O)CSc2nc(-c3ccccc3)cc(-c3ccc(OC)cc3)c2C#N)sc2c1CCCC2 [ITT53]	27
COc1ccccc1NC(=O)c1cccc(Nc2nc(-c3ccccc3)c3cc(Br)ccc3n2)c1 [ITT57]	17
